For experiment [1], the system named is P. aeruginosa PAO1 mature biofilms. Put plainly: Effect on mature biofilms, viability by MTT. Particulars: P. aeruginosa PAO1 pre-formed biofilm, 16 µM, 2-h exposure.
Experimental: Biofilm viability was measured by tetrazolium salt reduction (right panel). Values are presented as means ± the standard deviation (SD) of three independent experiments.
The effect of peptides on pre-formed biofilms was evaluated as follows. Biofilms were grown on a 96-well plate at 32 °C for 24 h and stirred at 120 rpm to ensure biofilm formation primarily on the wall of the wells. […] Bacterial survival in the biofilms after 2-h exposure was evaluated via a MTT assay after incubation with a tested peptide. Then, wells were rinsed with sterile water, treated with an MTT solution (Sigma, Kawasaki, Kanagawa, Japan) in PBS, and incubated for 4 h at 37 °C. Next, the medium was removed. The resulting formazan crystals were dissolved in a mixture of EtOH and DMSO (1:1) for 10 min. The optical density of the solution was measured at 570 nm. Bacterial survival was calculated as percent relative to samples without antimicrobial agent. All data were obtained from at least three independent experiments in 3 repetitions.
The next experiment concerns E. coli 3421/E19. Description: Neutropenic mice peritonitis model. Type of experiment: in vivo, BALB/c mice. The note with it: neutropenic BALB/c mice, CFU 5 h after treatment. How it is done:
Immune-deficient mice were inoculated intraperitoneally (i.p.) with bacterial suspension. Antimicrobial agent was administered 1 h post-infection, and colony counts in blood and peritoneal fluid (PF) were determined 5 h later.
(A) The mice peritonitis model. […] Horizontal bars indicate means ± SD.
Food and water were provided ad libitum.
CFU counts were determined from blood and peritoneal fluid (PF) 5 h after treatment. The mice were euthanized by CO2 asphyxiation and blood was collected by axillary cut down. A total of 2 mL sterile saline was injected i.p. and the abdomen gently massaged before it was opened, fluid sampled with a pipette, serially diluted and placed on Endo agar supplemented with 20 µg/mL of tetracycline for CFU identification.

The subject of the next experiment is E. coli MDR Cl 1057. Put plainly: Resistance induction by serial passages. It counts as cell-based. Particulars: E. coli MDR Cl 1057, 0.9% NaCl-enriched Mueller–Hinton medium.
Another experiment deals with P. aeruginosa PAO1. Description: Inhibition of biofilm formation, crystal violet. Particulars: 24 h, LB, 32 °C. It counts as cell-based. The source says: Such an adaptive and survival mechanism is mediated by biofilms, which constitutes the community of sessile bacteria embedded within the self-produced extracellular polymeric substance (EPS) that defends them from chemical, biological, and physical stress; it also […] foreign invaders. Besides the fact that EPS decreases concentration of antibiotics, bacteria inside biofilm are characterized by a reduced rate of cell divisions, an increased expression of stress response genes, an occurrence of persistent cells, and exchange of resistance genes leading to a broader spread of tolerant biofilm-growing bacteria. For the treatment of biofilm-associated infections a high concentration of antibiotics is required that also increases toxicity toward human cells. Antimicrobial peptides are able to act on certain stages of biofilm formation and various molecular targets and are considered as promising candidates for the development of new antibiofilm agents. […] Bacterial biomass amount was evaluated using the standard crystal violet assay over a 24 h incubation period with each drug. […]
Masses of biofilms were evaluated by dying with 0.1% CV. […]
The ability of peptides to influence the formation of biofilms was evaluated by the method of two-fold serial dilutions in a liquid nutrient medium. […] Further, the extracts were transferred to a new plate and absorption was measured at 570 nm. […]

Experimental for E. coli MDR Cl 1057: One of them involves a series passage with suspension of a test strain and liquid medium containing an antibacterial agent at concentrations near the MIC, which progressively increases during the experiment until resistant mutants are enriched. Bacteria that grew at the highest concentration of drug are used in the final step of the test that determines the final MIC value [18].
The ability of peptides to induce bacterial resistance was assessed by the method of two-fold serial dilutions; this test was repeated every day. […] Next, on the second day, 2 μL of the bacterial suspension was taken from the well containing the sub-inhibitory concentration of the drug as close as possible to the MIC and diluted with 1 mL of the same media.

For polymyxin B [reference compound], the “Residual viability of bacteria in mature biofilm” value in experiment [1] is given as “about 20%”. Also, in the experiment on E. coli 3421/E19 (n = 5, i.p. infection, single i.v. dose 1 h post-infection (AMPs 10 mg/kg, polymyxin B 5 mg/kg)), the “Bacterial burden in mice blood (in words)” value is reported as “complete reduction”. For the same substance, in the experiment with E. coli 3421/E19 (n = 5, single i.v. dose (AMPs 10 mg/kg, polymyxin B 5 mg/kg)), the “Reduction of the CFU level in peritoneal fluid (PF)” value is given as ~ 5 log. Further, in the experiment with E. coli MDR Cl 1057, the “Initial MIC in resistance induction experiment” value was determined as 0.125 µM. Moreover, the “Inhibition of biofilm formation (in words)” value with P. aeruginosa PAO1 is “modest inhibition of biofilm”.
